Tested on: Raw 264.7 and HeLa cells
Conditions: rhodamine-labeled polypeptide, n = 3

Question: Which “time of maximal cell uptake level post polypeptide treatment” value (2 μg/well) does the source give for “poly(ethylene glycol)-block-poly(O-pentenyl-L-serine-graft-cysteamine) [PEG112-b-(PPELS70-g-CA)]” here?
Answer: Its value is 2 h.

Question: What about the “dependence of cell uptake level on incubation time and feeding amount” value (0.5-5 μg/well for 2 h, 2 μg/well for 0.4-4 h) of the same substance?
Answer: The value was “increased with incubation time and the feeding amount”.

— PMC3555145 (Biomacromolecules, 2012)
